Data on twelve molecules can be found in patent US8703776B2 (Cymabay Therapeutics, Inc., priority 2011, dated 2014).

Molecules are shown by their SMILES.

The target in the assay is T1, human GPR131 (Homo sapiens, UniProt Q8TDU6).
T1 construct: expressed in transfected cells
T1 sequence (Q8TDU6 1-330): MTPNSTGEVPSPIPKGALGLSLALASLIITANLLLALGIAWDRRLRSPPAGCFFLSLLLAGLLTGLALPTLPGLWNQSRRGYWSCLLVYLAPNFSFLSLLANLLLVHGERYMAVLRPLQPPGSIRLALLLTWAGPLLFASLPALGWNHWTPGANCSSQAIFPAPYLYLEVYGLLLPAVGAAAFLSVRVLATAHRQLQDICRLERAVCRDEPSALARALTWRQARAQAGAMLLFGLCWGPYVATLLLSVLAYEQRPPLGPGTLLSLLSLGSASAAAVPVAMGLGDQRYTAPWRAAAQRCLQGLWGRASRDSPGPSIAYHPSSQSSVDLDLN
Kind of assay: Stimulation of cAMP in stable cell line expressing human GPR131 (FRET cAMP kit). The settings on record: 0.5 h; 1.1 μM compound, relative to maximal stimulatory activity of lithocholic acid at 3.3 μM; 30 minutes at 37° C.; read-out: Percent Activity @ 1.1 μM (of 3.3 uM LCA) (%). The class given is cell-based. As for the experimental part: This assay was developed using a stable cell line expressing human GPR131.
To measure cAMP activity in response to GPR131 agonists, GPR131 cells suspended in DMEM/F12 medium with 1 mM IBMX were seeded in 384 well plates at 5000 cells per well. After incubating with test compounds at 37° C. for 30 minutes cAMP was measured using a fluorescene resonance energy transfer cAMP kit from Cis Bio (Bedford, Mass.) according to the manufacturer's instructions. Briefly, cells were lysed, and cAMP levels determined by competitive immunoassay using D2 labeled cAMP, and europium cryptate tagged anti cAMP antibody. Decreases in the FRET signal (fluorescence ratio (665 nm/620 […]) correspond to increases in intracellular cAMP levels.
Activities of test compounds in Table 1 below are expressed as % activity at 1.1 μM compound compared to the maximal stimulatory activity of lithocholic acid (LCA) (determined at 3.3 μM LCA)

Consider `Cc1ccccc1CSc1ncc(C(=O)N(C)Cc2ccncc2)n1-c1ccc(F)cc1` [Compound 562, 1-(4-Fluorophenyl)-N-methyl-2-((2-methylbenzyl)thio)-N-(pyridin-4-ylmethyl)-1H-imidazole-5-carboxamide], for which the activation at 1.1 µM stood at 82%.

Turning to `Cc1ccc(-n2c(C(=O)N(C)Cc3ccncc3)cnc2SCc2c(F)cccc2Cl)cc1` [Compound 563, 2-((2-Chloro-6-fluorobenzyl)thio)-N-methyl-N-(pyridin-4-ylmethyl)-1-(p-tolyl)-1H-imidazole-5-carboxamide], the activation at 1.1 µM was 98%.

In the case of `CN(Cc1ccncc1)C(=O)c1cnc(SCc2c(F)cccc2Cl)n1-c1cccc(F)c1` [Compound 564, 2-((2-Chloro-6-fluorobenzyl)thio)-1-(3-fluorophenyl)-N-methyl-N-(pyridin-4-ylmethyl)-1H-imidazole-5-carboxamide], the activation at 1.1 µM amounted to 99%. Consider `CN(Cc1ccncc1)C(=O)c1cnc(SCc2c(F)cccc2Cl)n1C1CCCCC1` [Compound 565, 2-((2-Chloro-6-fluorobenzyl)thio)-1-cyclohexyl-N-methyl-N-(pyridin-4-ylmethyl)-1H-imidazole-5-carboxamide], for which the activation at 1.1 µM came out at 99%. Take `Cc1nn(C)cc1CN(C)C(=O)c1cnc(CSc2c(Cl)cccc2Cl)n1-c1ccc(F)cc1` [Compound 567, 2-(((2,6-Dichlorophenyl)thio)methyl)-N-((1,3-dimethyl-1H-pyrazol-4-yl)methyl)-1-(4-fluorophenyl)-N-methyl-1H-imidazole-5-carboxamide]: the activation at 1.1 µM worked out at 96%.

As to `Cc1nn(C)cc1CN(C)C(=O)c1cnc(COc2c(F)ccc(F)c2F)n1-c1ccc(F)cc1` [Compound 568, N-((1,3-Dimethyl-1H-pyrazol-4-yl)methyl)-1-(4-fluorophenyl)-N-methyl-2-((2,3,6-trifluorophenoxy)methyl)-1H-imidazole-5-carboxamide], the activation at 1.1 µM came out at 83%. `Cc1nn(C)cc1CN(C)C(=O)c1cnc(CSc2c(F)c(F)cc(F)c2F)n1-c1ccc(F)cc1` [Compound 569, N-((1,3-Dimethyl-1H-pyrazol-4-yl)methyl)-1-(4-fluorophenyl)-N-methyl-2-(((2,3,5,6-tetrafluorophenyl)thio)methyl)-1H-imidazole-5-carboxamide]: the activation at 1.1 µM stood at 98%. With `Cc1nn(C)cc1CN(C)C(=O)c1cnc(CSCc2c(F)ccc(F)c2F)n1-c1ccc(F)cc1` [Compound 572, N-((1,3-Dimethyl-1H-pyrazol-4-yl)methyl)-1-(4-fluorophenyl)-N-methyl-2-(((2,3,6-trifluorobenzyl)thio)methyl)-1H-imidazole-5-carboxamide] the figure was 88%; with `CN(Cc1ccnc(Cl)c1)C(=O)c1cnc(SCc2c(F)ccc(F)c2F)n1-c1ccc(F)cc1` [Compound 578, N-((2-Chloropyridin-4-yl)methyl)-1-(4-fluorophenyl)-N-methyl-2-((2,3,6-trifluorobenzyl)thio)-1H-imidazole-5-carboxamide], 99%. For `Cc1nn(C)cc1CN(C)C(=O)c1cnc(SCc2ccncc2)n1-c1ccc(F)cc1` [Compound 579, N-((1,3-Dimethyl-1H-pyrazol-4-yl)methyl)-1-(4-fluorophenyl)-N-methyl-2-((pyridine-4-ylmethyl)thio)-1H-imidazole-5-carboxamide], the activation at 1.1 µM came to 85%. As to `Cc1cc(CN(C)C(=O)c2cnc(SCCc3ccc(F)c(Cl)c3)n2-c2ccc(F)cc2)ccn1` [Compound 583], the activation at 1.1 µM was 96%. With `Cc1cc(CN(C)C(=O)c2c(C)nc(SCc3c(F)ccc(F)c3F)n2-c2ccc(F)cc2)ccn1` [Compound 585, 1-(4-Fluorophenyl)-N-4-dimethyl-N-((2-methylpyridin-4-yl)methyl)-2-((2,3,6-trifluorobenzyl)thio)-1H-imidazole-5-carboxamide] the figure was 97%.
